Data on 4 compounds can be found in US20100105773A1, “USE OF RESOLVINS AND DOCOSATRIENES AND ANALOGUES THEREOF FOR THE TREATMENT OF ANGIOGENESIS AND OCULAR NEOVASCULARIZATION” (THE CHILDREN'S MEDICAL CENTER CORPORATION, priority 2006, published 2010).

In assay [1] the test system is TNF-α. Conditions: literature refs 14-16; cited from earlier work.
For assay [2], the system named is oxygen-induced retinopathy (retinal vasculature). Put plainly: O2-induced retinopathy: vaso-obliteration and neovascularization at P17. Type of assay: in vivo, mouse. Conditions: for decrease in neovascularization (Tufts) compared to vehicle / decrease in vessel loss (VO) compared to vehicle control: 10 ng i.p. daily P6-P17, read at P17; for neovascularization at P17 compared to saline controls / protection from vaso-obliteration compared to saline-injected controls: 10 ng/day i.p. P6-P17. The method, then:
(§1) O2-induced retinopathy (vessel degeneration, re-growth and pathological neovascularization). To induce vessel loss, postnatal day 7 (P7) mice with their nursing mother were exposed to 75% oxygen for times ranging from 24 hours to 5 days^1. To evaluate vaso-obliteration following 24 hours of oxygen exposure, P8 mice were anesthetized at with Avertin (Sigma) and perfused with 50 μl of 120 mg/ml FITC-dextran (2×10^6 molecular weight, FD2000S-5G, Sigma) in saline through the left ventricle^21. Eyes were enucleated and fixed in 4% paraformaldehyde for 2 h at 4° C. Retinas were isolated and whole-mounted with SlowFade Antifade reagent (S2828, Molecular Probes) onto polylysin-coated slides with the photoreceptor side up. Retinas were examined with a fluorescence microscope (Olympus, Tokyo), digitized images using a three-charge-coupled device color video camera (DX-950P, Sony), and processed with NORTHERN ECLIPSE software (Empix Imaging, Toronto). Retinal neovascularization was evaluated 5 days after oxygen exposure (P7-P12) at P17 when the neovascular response is greatest. P17 mice were given a lethal dose of Avertin (Sigma) and their eyes were enucleated and fixed in 4% paraformaldehyde for 2 h at 4° C. Retinas were isolated and stained overnight with fluoresceinated Griffonia Bandereiraea Simplicifolia Isolectin B4 (Alexa Fluor 488-121411 or Alexa Fluor 594-121413, Molecular Probes) in 1 mM CaCl2 in PBS. Following 2 hours of washes, retinas were whole-mounted with glycerol-gelatin (Sigma) onto polylysin-coated slides with the photoreceptor side up and imaged with a confocal microscope.
Quantification of vaso-obliteration and retinal neovascularization. Images of each of 4 quadrants of whole-mounted retina were taken at 5× magnification and imported into Adobe Photoshop. Retinal segments were merged to produce an image of the entire retina. Vaso-obliteration and neovascular tuft formation were quantified by comparing the number of pixels in the affected areas with the total number of pixels in the retina. Percentages of vaso-obliteration and neovascularization from mouse retinas were compared with values for retinas from age-matched control mice with identical oxygen conditions^17,22. Evaluation was done blind to the identity of the sample.
Resolvins and Neuroprotectins. C57B1/6 nursing mothers were fed a diet rich in either omega-6 or omega-3 polyunsaturated fatty acids from birth. To induce proliferative retinopathy in the pups, mice were exposed to 75% oxygen from P7 to P12. Retinas collected at P17 from omega-6 or omega-3 polyunsaturated fatty acid fed dams and exposed to high oxygen or room air conditions were analyzed to determine lipid mediator profiles. Polyunsaturated fatty acid derived products were extracted, identified, and quantified using a deuterium-labeled internal standard and MS-MS based mediator informatics^23. Results were obtained from retinas of six mice, each from a separate litter. Treatments with synthetic RvD1 (7S,8R,17S-trihydroxy-docosa-4Z,9E,11E,13Z,15E,19Z-hexaenoic acid), RvE1 (5S,12R,18R-trihydroxy-6Z,8E,10E,14Z,16E-eicosapentaenoic acid) and Neuroprotectin-D1 (10R,17S dihydroxy-docosa-4Z,7Z,11E,13E,15Z,19z-hexaneoic acid) were performed in 4 litters of mice. RvD1, RvE1 and NPD1 were prepared by organic synthesis according to published procedures matching physical and biological criteria^14,24,25. The pups were injected i.p. daily from P6-P17 (before, during, and after exposure to 75% oxygen) with 10 ng of either RvD1 (n=14), RvE1 (n=10) or NPD1 (n=14) or Saline/EtOH (n=14) vehicle. Following retinal staining and whole-mounting, neovascularization and vaso-obliteration were quantified at P17. Vaso-obliteration was also assessed at P8 (after 24 hours of 75% oxygen exposure) in pups given 10 ng of RvD1 (n=7), RvE1 (n=9), NPD1 (n=7), or saline/EtOH vehicle injections (n=6) i.p. from P5-P8. Vaso-obliteration was quantified on retinal whole-mounts following FITC-dextran intracardiac perfusion and fixation as above. […]

In assay [3] the test system is oxygen-induced vessel loss (retinal vasculature). Put plainly: Oxygen-induced vessel loss (vaso-obliteration) at P8 after 24 hours of 75% oxygen. Format: in vivo, mouse. To be noted: 10 ng i.p. P5-P8, 24 hours of 75% oxygen. The method, then: as §1, with “P17 mice were given a lethal dose of Avertin (Sigma) and their eyes were enucleated and fixed in 4% paraformaldehyde for 2 h at 4° C. Retinas were isolated and stained overnight with fluoresceinated Griffonia Bandereiraea Simplicifolia Isolectin B4 (Alexa Fluor 488-121411 or Alexa Fluor 594-121413, Molecular Probes) in 1 mM CaCl2 in PBS. Following 2 hours of washes, retinas were whole-mounted with glycerol-gelatin (Sigma) onto polylysin-coated slides with the photoreceptor side up and imaged with a confocal microscope.” left out
Quantification of vaso-obliteration and retinal neovascularization. […] Vaso-obliteration and neovascular tuft formation were quantified by comparing the number of pixels in the affected areas with the total number of pixels in the retina. […]
Resolvins and Neuroprotectins. […] Retinas collected at P17 from omega-6 or omega-3 polyunsaturated fatty acid fed dams and exposed to high oxygen or room air conditions were analyzed to determine lipid mediator profiles. Polyunsaturated fatty acid derived products were extracted, identified, and quantified using a deuterium-labeled internal standard and MS-MS based mediator informatics^23. […] Following retinal staining and whole-mounting, neovascularization and vaso-obliteration were quantified at P17. Vaso-obliteration was also assessed at P8 (after 24 hours of 75% oxygen exposure) in pups given 10 ng of RvD1 (n=7), RvE1 (n=9), NPD1 (n=7), or saline/EtOH vehicle injections (n=6) i.p. from P5-P8. […]

Assay [4] has as its system oxygen-induced retinopathy (retinal vasculature). Put plainly: O2-induced retinopathy: vaso-obliteration and neovascularization at P17. Type of assay: in vivo, mouse.
Where [5] appears, read: i.p. injection, 500 μg/mouse at P7, P12, P14, P16, omega-6 PUFA fed mice.
Where [6] appears, read: intraocular (intravitreous) injection 12.5 μg on P12, omega-6 PUFA fed mice.

Entries after “also recorded” stand apart in the source; their conditions may differ.

For the compound `CC/C=C\C[C@H](O)\C=C/C=C/C=C/[C@H](O)C/C=C\C/C=C\CCC(=O)O` [NPD1, 10R,17S dihydroxy-docosa-4Z,7Z,11E,13E,15Z,19z-hexaneoic acid], the “TNF-α mRNA expression levels in inflammatory models” value (shortened to “TNF-α mRNA expression levels”) in assay [1] is “significantly reduce TNF-α mRNA expression levels”. Further, in assay [2], the “decrease in neovascularization (Tufts) compared to vehicle” value (“decrease in neovascularization (Tufts)” below) was determined as 30%, the “decrease in vessel loss (VO) compared to vehicle control” value (from here on “decrease in vessel loss (VO)”) is on record as 40%, the “neovascularization at P17 compared to saline controls” value is “less neovascularization” and the “protection from vaso-obliteration compared to saline-injected controls” value is “significant protection from vaso-obliteration”. Moreover, in assay [3], the “oxygen-induced vessel loss (VO) at P8 compared to saline-injected control” value is given as “No apparent differences in vessel loss; also recorded: no protective action”.

For the compound `CC/C=C\C[C@H](O)/C=C/C=C\C=C\C=C\[C@@H](O)[C@@H](O)C/C=C\CCC(=O)O` [RvD1, 7S,8R,17S-trihydroxy-docosa-4Z,9E,11E,13Z,15E,19Z-hexaenoic acid], the “TNF-α mRNA expression levels” value in assay [1] is on record as “significantly reduce TNF-α mRNA expression levels”. Besides, in assay [2], the “decrease in neovascularization (Tufts)” value amounted to 30%, the “decrease in vessel loss (VO)” value is reported as 40%, the “neovascularization at P17 compared to saline controls” value is recorded as “less neovascularization” and the “protection from vaso-obliteration compared to saline-injected controls” value is “significant protection from vaso-obliteration”. Also, in assay [3], the “oxygen-induced vessel loss (VO) at P8 compared to saline-injected control” value is given as “No apparent differences in vessel loss”.

Regarding `CC[C@@H](O)/C=C/C=C\C[C@@H](O)/C=C/C=C/C=C\[C@@H](O)CCCC(=O)O` [RvE1, 5S,12R,18R-trihydroxy-6Z,8E,10E,14Z,16E-eicosapentaenoic acid], the “TNF-α mRNA expression levels” value in assay [1] is recorded as “significantly reduce TNF-α mRNA expression levels”. For the same compound, in assay [2], the “decrease in neovascularization (Tufts)” value is 30%, the “decrease in vessel loss (VO)” value is on record as 40%, the “neovascularization at P17 compared to saline controls” value is “less neovascularization” and the “protection from vaso-obliteration compared to saline-injected controls” value is listed as “significant protection from vaso-obliteration”. In assay [3], the “oxygen-induced vessel loss (VO) at P8 compared to saline-injected control” value is given as “No apparent differences in vessel loss; also recorded: no protective action”.

Consider etanercept, for which, in assay [4] (setting [5]), the “pathologic neovascularization compared to saline injected controls” value is “significantly protected; also recorded: significant reduction in pathologic neovascularization” and the “vaso-obliteration (vessel loss) compared to saline injected controls” value is recorded as “significantly protected; also recorded: significant reduction in vaso-obliteration”. Further, in assay [4] (setting [6]), the “retinal neovascularization compared to fellow saline-injected eye” value is reported as “suppressed retinal neovascularization; also recorded: significantly improved neovascularization” and the “vaso-obliteration compared to fellow saline-injected eye” value is “significantly reduce vaso-obliteration”.
